Calls of active or inactive are those of the source. No rule for the calls is given here.
Target: Peptidyl-prolyl cis-trans isomerase FKBP1A (Homo sapiens) (UniProt P62942)
Test: FKBP12 binders, biophysical, NMR detection (AID 608)
Details: NMR binding, purified FKBP12

Chain of Peptidyl-prolyl cis-trans isomerase FKBP1A (Homo sapiens) (P62942 whole entry, looked up): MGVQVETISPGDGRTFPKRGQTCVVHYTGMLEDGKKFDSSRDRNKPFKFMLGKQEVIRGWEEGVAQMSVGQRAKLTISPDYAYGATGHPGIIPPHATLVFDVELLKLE

Row | SMILES | Kd
1 | CN(C(N)=O)C1(C)CCS(=O)(=O)C1 (stereo not drawn) | > 4 mM (inactive)
2 | S=c1[nH]nc(-c2cccnc2)n1C1CCCCC1 | > 4 mM (inactive)
3 | Cc1cc(C(=O)NN2CCOCC2)c(C)o1 | > 4 mM (inactive)
4 | COc1ccc(-c2coc3c(O)c(OC)ccc3c2=O)cc1 | > 4 mM (inactive)
5 | COc1ccc(-c2oc3cc(O[C@H]4O[C@H](CO)[C@@H](O)[C@H](O)[C@H]4O)c(OC)c(O)c3c(=O)c2OC)cc1O | > 4 mM (inactive)
6 | O=C1Cn2c(nc3ccccc32)N1c1ccccc1F | > 4 mM (inactive)
7 | CC1(C)Oc2ccc3ccc(=O)oc3c2CC1O (stereo not drawn) | > 4 mM (inactive)
8 | c1ccc(-c2n[nH]c(-c3ccccn3)n2)nc1 | > 4 mM (inactive)
9 | Cc1cc(=O)oc2cc(O)c(O)cc12 | > 4 mM (inactive)
10 | NC(=O)CSc1nnc2ccc(-c3ccco3)nn12 | > 4 mM (inactive)
11 | Nc1ccc2c(c1)CCC2=O | > 4 mM (inactive)
12 | COC(=O)c1sccc1S(=O)(=O)N1CCCC1 | > 4 mM (inactive)
13 | CCCCCC1C(=O)CCC1CC(=O)OC (stereo not drawn) | > 4 mM (inactive)
14 | O=C(NN1C(=O)c2ccccc2C1=O)c1cccs1 | > 4 mM (inactive)
15 | NC(=O)COc1cccc2cccnc12 | > 4 mM (inactive)
16 | Cc1c(C(=O)Nc2ccccn2)oc2ccccc12 | > 4 mM (inactive)
17 | CCCCNS(=O)(=O)c1ccc(OCC(=O)N2CCOCC2)cc1 | inactive
18 | O=C(NCc1ccccn1)c1ccc(Br)s1 | > 4 mM (inactive)
19 | COc1ccc2c(c1OC)C(=O)O[C@@H]2[C@@H]1c2cc3c(cc2CCN1C)OCO3 | > 4 mM (inactive)
20 | NC(Cc1c[nH]c2ccccc12)C(=O)O (stereo not drawn) | > 4 mM (inactive)
21 | O=C(O)c1ccccc1N1CCOCC1 | > 4 mM (inactive)
22 | CC[C@@]1(O)C(=O)OCc2c1cc1n(c2=O)Cc2cc3ccccc3nc2-1 | > 4 mM (inactive)
23 | COc1ccc(-c2cc(=O)c3cc(OC)ccc3o2)cc1 | > 4 mM (inactive)

Row | SMILES | Kd
24 | NCc1csc2ccccc12 | > 4 mM (inactive)
25 | O=C(Cc1c(F)cccc1Cl)Nc1cccnc1 | > 4 mM (inactive)
26 | COc1cccc(=O)c2c(C)n(C)c(C)c12 | > 4 mM (inactive)
27 | O=C(O)CC1NCCNC1=O (stereo not drawn) | > 4 mM (inactive)
28 | C[C@H]1[C@H]2CCC3C4CC=C5C[C@@H](N(C)C)CC[C@]5(C)C4CC[C@@]32CN1C (stereo partly drawn) | > 4 mM (inactive)
29 | COc1ccc2[nH]cc(CN(C)C)c2c1 | > 4 mM (inactive)
30 | Cc1cc(C(=O)Nc2ccon2)cs1 | > 4 mM (inactive)
31 | COc1ccc(-c2cc(=O)c3c(O)cc(O[C@H]4O[C@H](CO[C@@H]5O[C@@H](C)[C@H](O)[C@@H](O)[C@H]5O)[C@@H](O)[C@H](O)[C@H]4O)cc3o2)cc1 | > 4 mM (inactive)
32 | COc1ccc(-c2oc3c(CC=C(C)C)c(O[C@@H]4O[C@H](CO)[C@@H](O)[C@H](O)[C@H]4O)cc(O)c3c(=O)c2O[C@@H]2O[C@@H](C)[C@H](O)[C@@H](O)[C@H]2O)cc1 | > 4 mM (inactive)
33 | CCSc1nc(C)c(CC)c(C)c1C(N)=O | > 4 mM (inactive)
34 | C[C@@H]1O[C@@H](O[C@H]2CC[C@]3(C=O)C4CC[C@]5(C)[C@@H](C6=CC(=O)OC6)CC[C@]5(O)C4CC[C@]3(O)C2)[C@H](O)[C@H](O)[C@H]1O (stereo partly drawn) | > 4 mM (inactive)
35 | Cc1cc(=O)cc(C)n1NC(N)=S | > 4 mM (inactive)
36 | NC(=O)C1CCN(C(=S)c2ccccc2)CC1 | > 4 mM (inactive)
37 | COc1cc2[nH]c(=S)n(C)c(=O)c2cc1OC | > 4 mM (inactive)
38 | Cc1nnc(SCC(N)=O)c2ccccc12 | > 4 mM (inactive)
39 | Cn1cccc1C=C1C(=O)NC(=S)NC1=O | > 4 mM (inactive)
40 | O=C(Nc1ccccc1)Nc1ccccn1 | > 4 mM (inactive)
41 | CCNC(CC(=O)Nc1cccc([N+](=O)[O-])c1)C(=O)O (stereo not drawn) | > 4 mM (inactive)
42 | Nc1ccc(NS(=O)(=O)c2ccc(N)cc2)cc1 | > 4 mM (inactive)
43 | O=C(O)c1ccc(Nc2nncc(=O)[nH]2)cc1 | > 4 mM (inactive)
44 | Cc1cc2cc3c(C)cc(=O)oc3c(C)c2o1 | > 4 mM (inactive)
45 | N#CCSc1nc2ccccc2c(=O)n1-c1ccccc1 | > 4 mM (inactive)
46 | O=C(Nc1ccon1)c1ccccc1Cl | > 4 mM (inactive)

Row | SMILES | Kd
47 | CC(C)=CCc1c(O)cc2occ(-c3ccc4c(c3)OCO4)c(=O)c2c1O | > 4 mM (inactive)
48 | CC(C)CCCC(C)[C@H]1CCC2C3CC[C@@H]4C[C@H](O)CC[C@]4(C)C3CC[C@@]21C (stereo partly drawn) | > 4 mM (inactive)
49 | O=C(O)c1ccc(-n2cccn2)cc1 | > 4 mM (inactive)
50 | NC(=O)CSc1nc2ccccc2[nH]1 | > 4 mM (inactive)
51 | CCC(C)C(=O)c1c(O)c(C)c2oc3c(C)c(O)c(C(=O)C(C)CC)c(O)c3c2c1O (stereo not drawn) | > 4 mM (inactive)
52 | COc1cc(CNC(=O)CCCC/C=C/C(C)C)ccc1O | > 4 mM (inactive)
53 | O=C1CCC(=O)N1c1nc2ccccc2s1 | > 4 mM (inactive)
54 | O=C1CCCC(=O)N1c1ccc(O)cc1 | > 4 mM (inactive)
55 | CC1(C)C2CC[C@]3(C)C(C(=O)C=C4[C@H]5C[C@@](C)(C(=O)O)CC[C@]5(C)CC[C@]43C)[C@@]2(C)CC[C@@H]1O (stereo partly drawn) | > 4 mM (inactive)
56 | O=c1oc(-c2ccccc2)nc2c1cnn2-c1ccccc1 | > 4 mM (inactive)
57 | O=c1[nH]c(CN2CCN(CCO)CC2)nc2ccccc12 | > 4 mM (inactive)
58 | Cc1nc(SCC#N)c2c(C)c(C)sc2n1 | > 4 mM (inactive)
59 | CN1C(CC(=O)c2ccccc2)CCCC1CC(O)c1ccccc1 (stereo not drawn) | > 4 mM (inactive)
60 | CC(C)CCn1cnc2c1c(=O)n(C)c(=O)n2C | > 4 mM (inactive)
61 | Cc1cc(C)n2nc(SCC(=O)c3ccccc3)nc2n1 | > 4 mM (inactive)
62 | Oc1ccc(/C=C/c2cc(O)cc(O)c2)cc1 | > 4 mM (inactive)
63 | CC(=O)Nc1cccc(-c2nc3ccccc3c(=O)o2)c1 | > 4 mM (inactive)
64 | O=C(O)c1cccnc1Oc1ccccc1 | > 4 mM (inactive)
65 | CS(=O)(=O)c1nncn1-c1ccccc1 | > 4 mM (inactive)
66 | O=C1CN(C(=O)c2ccccc2)c2ccccc2N1 | > 4 mM (inactive)
67 | CC(=O)Nc1cccc(-c2nnc(-c3ccccc3)o2)c1 | > 4 mM (inactive)
68 | Cn1c(NCc2ccccc2O)nc2ccccc21 | > 4 mM (inactive)
69 | CC1(C)NC(=O)N(CCOc2ccc3c(c2)CCC3)C1=O | > 4 mM (inactive)

Row | SMILES | Kd
70 | O=C(c1ccccc1-c1ccccc1)N1CCOCC1 | > 4 mM (inactive)
71 | O=C(Nc1nnc(-c2ccccc2Cl)o1)c1ccco1 | > 4 mM (inactive)
72 | O=C1C2C3CCC(O3)C2C(=O)N1c1ccccc1 (stereo not drawn) | > 4 mM (inactive)
73 | Cc1cc(-c2ccccc2)nc2cc(C(N)=O)nn12 | > 4 mM (inactive)
74 | OCc1ccc(Oc2ccccc2)nc1 | > 4 mM (inactive)
75 | Cc1cc(NC(=O)CSc2ccnc(=O)[nH]2)no1 | > 4 mM (inactive)
76 | Cc1occc1C(=O)Nc1nnc(C2CCCCC2)s1 | > 4 mM (inactive)
77 | COc1ccc(NC(=O)CSc2nccc(=O)[nH]2)cc1 | > 4 mM (inactive)
78 | Cc1ccc(NC(=O)/C=C2\SC(=O)NC2=O)cc1 | > 4 mM (inactive)
79 | COC(=O)c1cnccc1C(F)(F)F | > 4 mM (inactive)
80 | CN1CC(=O)N=C1N | > 4 mM (inactive)
81 | Cc1c(C)[n+](=O)c(-c2cccs2)c(C)n1[O-] | > 4 mM (inactive)
82 | CCn1cnc2scc(-c3ccccc3)c2c1=O | > 4 mM (inactive)
83 | COc1ccc(-c2coc3cc(O)ccc3c2=O)c(O)c1O | > 4 mM (inactive)
84 | Nc1ccc2ncsc2c1 | > 4 mM (inactive)
85 | Cc1cc(N)n(-c2ccccc2)n1 | > 4 mM (inactive)
86 | O=[N+]([O-])c1ccc(/C=N/c2ncn[nH]2)cc1 | > 4 mM (inactive)
87 | COn1c(=O)c(-c2ccco2)[n+]([O-])c2ccccc21 | > 4 mM (inactive)
88 | CCCCn1c(S(=O)(=O)O)nc2ccccc21 | > 4 mM (inactive)
89 | Oc1cc2c(cc1O)C1c3ccc(O)c(O)c3OCC1(O)C2 (stereo not drawn) | > 4 mM (inactive)
90 | O=c1c2c(nc3nc(COc4ccccc4)[nH]n13)CCC2 | > 4 mM (inactive)
91 | CSc1ccc(/C=N/n2c(C)nnc2C)cc1 | > 4 mM (inactive)
92 | C[C@@H]1O[C@@H](O[C@H]2[C@H](Oc3cc(O)c4c(=O)cc(-c5ccc(O)cc5)oc4c3)O[C@H](CO)[C@@H](O)[C@@H]2O)[C@H](O)[C@H](O)[C@H]1O | > 4 mM (inactive)

Row | SMILES | Kd
93 | CCN(CC)c1nc2n(c(=O)n1)CCO2 | > 4 mM (inactive)
94 | CCOC(=O)C1CCN(Cc2ccccc2)CC1=O (stereo not drawn) | > 4 mM (inactive)
95 | CC1(c2ccncc2)NC(=O)NC1=O (stereo not drawn) | > 4 mM (inactive)
96 | O=C(NCc1ccco1)c1ccc(Br)s1 | > 4 mM (inactive)
97 | Nc1nc2ccc(N3CCOCC3)cc2s1 | > 4 mM (inactive)
98 | CON(C)C(=O)Nc1ccc(Cl)cc1 | > 4 mM (inactive)
99 | O=C1C2C3C=CC(C3)C2C(=O)N1c1nccs1 (stereo not drawn) | > 4 mM (inactive)
100 | Cc1nc2ccc(NC(=O)N3CCOCC3)cc2s1 | > 4 mM (inactive)
101 | Cc1cc(C)cc(OC(=O)N2CCOCC2)c1 | > 4 mM (inactive)
102 | Nc1nc(CSc2ncn(-c3ccccc3)n2)cs1 | > 4 mM (inactive)
103 | Cn1ncc(SCc2ccco2)c(Cl)c1=O | > 4 mM (inactive)
104 | Clc1ccc(SCCn2cncn2)cc1 | > 4 mM (inactive)
105 | Clc1cccc(Cl)c1Cn1c(-c2cscn2)nc2ccccc21 | inactive
106 | COC(=O)Nc1nc2c(s1)CCCC2 | > 4 mM (inactive)
107 | Cc1cc(C)nc(/N=C(/N)N2CCC(C(N)=O)CC2)n1 | > 4 mM (inactive)
108 | COc1ccc(NC(=O)c2ccc[n+]([O-])c2)cc1 | > 4 mM (inactive)
109 | O=c1[nH]cc(NCc2ccccc2)c(=O)[nH]1 | > 4 mM (inactive)
110 | Nc1nc(SCc2ccc3c(c2)OCCO3)n[nH]1 | > 4 mM (inactive)
111 | COc1ccc2cc1Oc1ccc(cc1)C[C@H]1c3cc(c(OC)cc3CCN1C)Oc1c(OC)c(OC)cc3c1[C@H](C2)N(C)CC3 | > 4 mM (inactive)
112 | Cc1cc(=O)[nH]c2ccccc12 | > 4 mM (inactive)
113 | Cc1n[nH]c(=O)c2ncn(C)c12 | > 4 mM (inactive)

From PubChem BioAssay AID608 (Sanford-Burnham Center for Chemical Genomics, 2007)
